Measurements as given in ChEMBL document CHEMBL1201862, “PubChem BioAssay data set” (2004).
The source made the active and inactive calls.

Legend:
[1] = biological target: FAD-linked sulfhydryl oxidase ALR (Homo sapiens, UniProt P55789); experiment: ALR-catalysed DTT oxidation blockers – biochemical, H2O2 detection, luminescence, cherry-pick, dose response (AID 493248)
Large T antigen = Large T antigen (Simian virus 40, UniProt P03070); format: functional, Betapolyomavirus macacae;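 note: Confirmatory-stage PubChem screen for compounds that inhibit SV40 T antigen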
Large T antigen, sequence (P03070 whole entry): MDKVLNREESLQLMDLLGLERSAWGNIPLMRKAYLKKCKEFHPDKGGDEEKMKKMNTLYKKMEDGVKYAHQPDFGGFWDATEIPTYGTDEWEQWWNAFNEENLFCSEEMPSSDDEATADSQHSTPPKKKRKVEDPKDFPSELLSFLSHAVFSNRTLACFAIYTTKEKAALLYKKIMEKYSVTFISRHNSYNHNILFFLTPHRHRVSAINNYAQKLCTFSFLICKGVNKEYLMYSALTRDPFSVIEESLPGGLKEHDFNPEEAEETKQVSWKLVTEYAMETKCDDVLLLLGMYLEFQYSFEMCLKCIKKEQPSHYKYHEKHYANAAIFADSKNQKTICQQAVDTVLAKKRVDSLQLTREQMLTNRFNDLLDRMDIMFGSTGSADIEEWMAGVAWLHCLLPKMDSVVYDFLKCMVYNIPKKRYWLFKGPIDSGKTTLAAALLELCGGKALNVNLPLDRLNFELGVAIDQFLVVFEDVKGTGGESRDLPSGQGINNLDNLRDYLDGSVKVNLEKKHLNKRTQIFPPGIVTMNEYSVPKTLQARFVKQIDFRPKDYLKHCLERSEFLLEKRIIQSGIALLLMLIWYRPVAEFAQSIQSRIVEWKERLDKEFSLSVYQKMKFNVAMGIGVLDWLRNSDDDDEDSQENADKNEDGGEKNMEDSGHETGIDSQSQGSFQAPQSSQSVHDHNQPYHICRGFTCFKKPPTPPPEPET

[2] = NIH3T3 cell viability loss – ATP luminescence, mouse fibroblasts, counter-screen, dose response (AID 2010); format: functional, cell-based;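 note: cells exposed to compound for about 90 hours before reading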
Streptococcus = experiment: GAS UMAA2166 growth inhibition – luminescence, BacTiterGlo, counter-screen for streptokinase expression inhibitor project, dose response (AID 1915); format: functional, organism-based;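 note: potency for reduction of bacterial viability or growth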
H9c2 = experiment: cells; format: functional, cell-based; conditions: Rattus norvegicus, H9c2, Myocardium
[3] = tested on: Streptococcus sp. 'group A'; experiment: Streptococcus pyogenes SK(-)GAS viability under kanamycin – luminescence, BacTiterGlo, confirmation, counter-screen for streptokinase expression inhibitor project, dose response (AID 1900); format: functional, organism-based
[4] = biological target: T1, Heat shock factor protein 1 (Mus musculus, UniProt P38532); experiment: decrease of HSF1-responsive luciferase luminescence – cell-based, NIH3T3, dose retest, confirmation (AID 2382); format: functional;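 note: NIH3T3 fibroblasts with HSF1-driven luciferase reporter stressed by proteasome inhibitor MG132; luminescence from HSF1-driven luciferase expression after 8 hours of MG132 stress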
T1 sequence (P38532 whole entry): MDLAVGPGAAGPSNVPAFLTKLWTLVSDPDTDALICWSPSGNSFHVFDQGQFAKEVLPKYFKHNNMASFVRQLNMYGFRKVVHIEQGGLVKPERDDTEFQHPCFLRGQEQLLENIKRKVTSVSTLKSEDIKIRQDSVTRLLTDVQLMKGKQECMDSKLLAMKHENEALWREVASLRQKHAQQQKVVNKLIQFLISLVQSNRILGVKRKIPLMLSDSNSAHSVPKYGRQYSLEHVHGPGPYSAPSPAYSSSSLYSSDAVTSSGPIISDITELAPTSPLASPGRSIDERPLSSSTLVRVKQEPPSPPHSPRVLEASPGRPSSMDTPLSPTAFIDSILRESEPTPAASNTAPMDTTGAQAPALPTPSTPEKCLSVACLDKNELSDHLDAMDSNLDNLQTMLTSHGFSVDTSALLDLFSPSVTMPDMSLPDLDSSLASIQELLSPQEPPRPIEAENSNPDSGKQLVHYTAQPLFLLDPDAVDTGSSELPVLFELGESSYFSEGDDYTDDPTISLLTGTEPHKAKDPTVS

[5] = Trypanosoma cruzi growth suppression in host cells – NIH3T3 host cells, beta-gal luminescence, confirmation (AID 2044); format: functional, cell-based;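 note: intracellular parasites grown in NIH/3T3 mouse fibroblasts as host cells; luminescent beta-galactosidase reporter signal from transgenic T. cruzi replicating inside host cells; inhibitors lower the luminescence signal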
[6] = biological target: T2, Ubiquitin-conjugating enzyme E2 N (Homo sapiens, UniProt P61088); format: functional;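 note: Dose-response confirmation in a TR-FRET assay detecting UBC13-driven polyubiquitin chain formation, inhibition measured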
T2 sequence (P61088 whole entry): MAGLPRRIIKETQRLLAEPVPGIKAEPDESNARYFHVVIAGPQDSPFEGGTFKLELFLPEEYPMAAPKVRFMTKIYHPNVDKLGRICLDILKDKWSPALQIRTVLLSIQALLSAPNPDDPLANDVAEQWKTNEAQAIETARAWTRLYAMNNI

Streptokinase A = biological target: T3, Streptokinase A (Streptococcus pyogenes serotype M1, UniProt P10520); experiment: viability-normalized secreted streptokinase activity reduction – plasminogen activation absorbance, OD405, dose response (AID 1914); format: functional, Streptococcus pyogenes M1 GAS;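 note: secreted streptokinase activity via plasminogen activation per viability signal from cell pellet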
T3 sequence (P10520 whole entry): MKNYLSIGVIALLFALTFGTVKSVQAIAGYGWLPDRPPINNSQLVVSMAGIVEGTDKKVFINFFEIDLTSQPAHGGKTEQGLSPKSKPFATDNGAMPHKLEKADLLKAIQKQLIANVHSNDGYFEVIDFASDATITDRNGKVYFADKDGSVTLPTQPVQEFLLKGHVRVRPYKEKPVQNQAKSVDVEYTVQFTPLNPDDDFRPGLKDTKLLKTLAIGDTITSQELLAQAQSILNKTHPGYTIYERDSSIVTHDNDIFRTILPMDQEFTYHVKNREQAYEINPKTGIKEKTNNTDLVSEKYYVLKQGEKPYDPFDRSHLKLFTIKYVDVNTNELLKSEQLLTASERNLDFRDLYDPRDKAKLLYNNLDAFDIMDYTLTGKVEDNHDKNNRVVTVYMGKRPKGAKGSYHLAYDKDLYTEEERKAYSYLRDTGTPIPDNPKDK

[7] = fluconazole-exposed Candida albicans growth modulators – fluorescence, retest, confirmation (AID 2467); format: functional, cell-based
[8] = NIH-3T3 fibroblast cytotoxicity, dose response, cytotoxicity control, cell-based, fluorescence, Alamar Blue, secondary assay (AID 2327); format: functional;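 note: NIH-3T3 mouse fibroblasts cultured with fluconazole at 8 µg/mL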
[9] = biological target: Glyceraldehyde-3-phosphate dehydrogenase (Homo sapiens, UniProt P04406)
Glyceraldehyde-3-phosphate dehydrogenase, sequence (P04406 whole entry): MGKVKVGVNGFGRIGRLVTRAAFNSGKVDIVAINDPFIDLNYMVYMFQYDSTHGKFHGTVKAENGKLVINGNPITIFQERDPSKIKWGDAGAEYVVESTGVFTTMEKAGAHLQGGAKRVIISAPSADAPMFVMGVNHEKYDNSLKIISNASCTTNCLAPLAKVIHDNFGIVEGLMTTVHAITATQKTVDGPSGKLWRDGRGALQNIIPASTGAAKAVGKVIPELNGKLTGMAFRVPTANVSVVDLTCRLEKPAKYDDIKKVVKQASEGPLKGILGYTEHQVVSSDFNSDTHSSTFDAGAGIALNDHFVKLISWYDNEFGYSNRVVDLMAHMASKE

[10] = reduction of Shn3 3'UTR-driven luciferase in osteoblasts – cell-based, Clone20 osteoblasts, firefly luciferase, cherry-picked, dose response (AID 624132); format: functional;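 note: firefly luciferase luminescence from reporter carrying the Shn3 3'UTR in osteoblasts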
[11] = non-specific 3'UTR reporter inhibition in Clone20-Shn3RL – cell-based, Renilla luciferase, cherry-picked, counter-screen for Shn3 inhibitor project, dose response (AID 624133); format: functional
[12] = loss of viability in HepG2 cells – cell-based, CellTiter-Glo, cherry-picked, cytotoxicity control for Shn3 inhibitor project, dose response (AID 624134); format: functional
INS1 = experiment: INS-1E survival protection against cytokine death – cell-based, luminescence, retest, dose response (AID 449756); format: functional; conditions: Rattus norvegicus;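 note: cell death triggered by IL-1 beta plus TNF-alpha plus IFN-gamma mixture; protective hits raise ATP signal compared with cytokine alone wells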
Paired box protein Pax-8 = Paired box protein Pax-8 (Homo sapiens, UniProt Q06710); experiment: PAX8 transcriptional activity inhibition in RMG-I – RMG-I cells, luciferase, cherry-pick, dose response (AID 687027); format: functional, cell-based;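 note: luciferase reporter driven by Pax8 target thyroperoxidase promoter measured by SteadyGlo luminescence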
Paired box protein Pax-8, sequence (Q06710 whole entry): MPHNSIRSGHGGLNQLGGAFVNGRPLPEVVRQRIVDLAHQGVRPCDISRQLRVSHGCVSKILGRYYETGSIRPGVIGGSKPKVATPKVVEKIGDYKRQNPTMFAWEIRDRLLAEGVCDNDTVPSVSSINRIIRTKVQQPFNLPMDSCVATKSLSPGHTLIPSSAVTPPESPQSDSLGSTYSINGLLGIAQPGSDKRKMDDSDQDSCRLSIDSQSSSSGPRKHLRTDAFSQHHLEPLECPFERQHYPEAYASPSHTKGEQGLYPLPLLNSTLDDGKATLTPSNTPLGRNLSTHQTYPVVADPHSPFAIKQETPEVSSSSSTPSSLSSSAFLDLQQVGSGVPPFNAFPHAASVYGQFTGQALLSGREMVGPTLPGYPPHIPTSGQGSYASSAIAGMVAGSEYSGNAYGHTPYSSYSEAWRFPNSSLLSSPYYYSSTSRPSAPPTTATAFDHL

[13] = biological target: T1, Heat shock factor protein 1; experiment: enhancement of HSF1-driven luciferase signal – cell-based, NIH3T3, luminescence, dose retest, confirmation (AID 435004); format: functional;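 note: stress induced by proteasome inhibitor MG132 added 30 min after compound; luciferase reporter driven by HSF1 response element in NIH3T3 cells; actives raise luminescence as potentiators of the MG132 stress response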
[14] = biological target: T4, Rac GTPase-activating protein 1 (Homo sapiens, UniProt Q9H0H5); experiment: blockers of MgcRacGAP-driven Rac1 GTP hydrolysis – biochemical, ADP Hunter fluorescence, primary and confirmatory, confirmation (AID 624330); format: functional
T4 sequence (Q9H0H5 whole entry): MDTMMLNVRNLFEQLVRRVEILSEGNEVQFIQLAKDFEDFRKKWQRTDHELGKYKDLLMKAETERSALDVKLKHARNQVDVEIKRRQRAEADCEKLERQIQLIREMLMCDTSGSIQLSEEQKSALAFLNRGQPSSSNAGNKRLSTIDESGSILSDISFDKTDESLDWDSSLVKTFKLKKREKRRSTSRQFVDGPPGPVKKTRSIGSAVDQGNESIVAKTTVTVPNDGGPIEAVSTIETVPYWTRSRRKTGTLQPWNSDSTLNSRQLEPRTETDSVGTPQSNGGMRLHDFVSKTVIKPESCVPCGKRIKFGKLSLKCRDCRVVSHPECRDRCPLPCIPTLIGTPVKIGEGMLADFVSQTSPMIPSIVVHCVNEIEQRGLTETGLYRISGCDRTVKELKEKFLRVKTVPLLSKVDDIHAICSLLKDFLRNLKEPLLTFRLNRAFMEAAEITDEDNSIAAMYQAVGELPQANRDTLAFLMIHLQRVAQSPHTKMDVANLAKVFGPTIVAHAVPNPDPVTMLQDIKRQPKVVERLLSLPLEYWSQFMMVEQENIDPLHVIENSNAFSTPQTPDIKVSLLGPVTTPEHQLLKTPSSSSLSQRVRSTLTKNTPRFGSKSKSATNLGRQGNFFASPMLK

FAD-linked sulfhydryl oxidase ALR, sequence (P55789 whole entry): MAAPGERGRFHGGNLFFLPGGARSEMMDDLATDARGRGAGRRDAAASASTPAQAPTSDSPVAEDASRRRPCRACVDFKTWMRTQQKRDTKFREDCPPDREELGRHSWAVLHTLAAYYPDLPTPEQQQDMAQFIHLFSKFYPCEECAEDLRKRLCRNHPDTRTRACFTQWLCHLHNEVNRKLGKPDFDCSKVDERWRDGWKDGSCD

## COc1ccc(-c2cc(=O)oc3c(O)c(O)ccc23)cc1
[1]
  AC50: 1.35 µM (active)
Large T antigen
  IC50: 8.81 µM (active)

## O=C(COc1ccc(F)cc1Cl)Nc1nc(-c2ccccn2)cs1
[2]
  EC50: 3.74 µM (active)
Streptococcus
  EC50: 3.29 µM (active)
H9c2
  IC50: > 79 µM (inactive)
[3]
  EC50: 0.751 µM (active)
[4]
  EC50: 41.4 µM (active)
[5]
  EC50: 1.57 µM (active)

## CCCCCCCCC(=O)N1CCN(c2cc3c(cc2F)c(=O)c(C(=O)O)cn3CC)CC1
[6]
  IC50: > 20 µM (inactive)

## O=C(COc1ccc(F)cc1)Nc1nc(-c2ccccn2)cs1
Streptococcus
  EC50: 16.1 µM (active)
Streptokinase A
  EC50: > 150 µM (not active)
H9c2
  IC50: 16.1 µM (active)
[3]
  EC50: 7.19 µM (active)
[7]
  EC50: 2.59 µM (active)
[8]
  EC50: > 150 µM (inactive)

## O=C(O)c1cc(S(=O)(=O)Nc2cccc(Cl)c2)ccc1O
[9]
  IC50: > 100 µM (not active)

## O=C(CCC(=O)N1CCOc2ccc(Cl)cc21)NCCCN1CCN(c2ccccc2F)CC1
[6]
  IC50: > 20 µM (inactive)

## NS(=O)(=O)c1ccc(NS(=O)(=O)c2ccc(O)c(C(=O)O)c2)cc1
[9]
  IC50: > 100 µM (not active)

## CN(C)S(=O)(=O)c1ccc(Oc2ccc(S(=O)(=O)N(C)C)cc2)cc1
[10]
  AC50: 3.04 µM (active)
[11]
  AC50: 12.1 µM (active)
[12]
  AC50: 53.5 µM (active)
INS1
  AC50: 6.33 µM (active)

## Cc1cc(C)c(C(=O)/C=C/c2cccc3ccccc23)c(O)n1
Paired box protein Pax-8
  AC50: 5.27 µM (active)
[13]
  EC50: 6.62 µM (active)

## Cc1cc(C)cc(OCC(=O)Nc2cccc(-c3nnc(-c4ccco4)o3)c2)c1
H9c2
  IC50: 9.22 µM (active)

## O=C(NCC1CCCO1)C(c1ccc(F)cc1)N(C(=O)Cn1nnc(-c2ccc(F)cc2)n1)c1cccc(O)c1 (configuration not stated)
H9c2
  IC50: > 79 µM (inactive)

## Cc1cccc(N2C(=O)C(Cl)=C(N3CCN(Cc4ccc5c(c4)OCO5)CC3)C2=O)c1
[9]
  IC50: > 50 µM (inconclusive)

## COC(=O)Oc1ccc(/C=C/C(=O)OC(C)C)cc1OC(=O)OC
[10]
  AC50: 3.29 µM (active)
[11]
  AC50: 2.56 µM (active)
H9c2
  IC50: > 79 µM (inactive)

## CC(C)(C)OC(=O)NCCCCCNC(=O)c1[nH]cnc1C(=O)Nc1ccc(Cl)cc1
H9c2
  IC50: > 79 µM (inactive)

## O=C(c1ccc(-c2nc3ccccc3s2)o1)N1CCN(c2ccccc2O)CC1
H9c2
  IC50: > 79 µM (inactive)

## O=C1C(Cl)=C(N2CCN(CCOCCO)CC2)C(=O)N1c1ccc(Cl)nc1
[9]
  IC50: > 50 µM (inconclusive)

## O=Cc1ccc(OCc2cccc(C(F)(F)F)c2)cc1O
H9c2
  IC50: > 79 µM (inactive)

## Cc1cc(C)cc(N(CCC#N)C(=O)COC(=O)Cn2[nH]c(=O)c3ccccc3c2=O)c1
H9c2
  IC50: > 79 µM (inactive)

## Cn1c(SCc2cccc(Br)c2)nc2ccccc2c1=O
[10]
  AC50: 7.68 µM (active)
[11]
  AC50: 3.47 µM (active)
[12]
  AC50: 59.8 µM (active)

## CCCN1CCN(C(=O)CCc2nnc3ccc(N4CCN(c5cccc(OC)c5)CC4)nn23)CC1
H9c2
  IC50: > 79 µM (inactive)

## Cc1ccc(S(=O)(=O)CCC(=O)OCC(=O)Nc2cc(S(=O)(=O)N3CCOCC3)ccc2C)cc1
[10]
  AC50: 17.8 µM (active)
[11]
  AC50: 1.76 µM (active)

## Cc1ccc(O)c(CNCCNCc2cc(C)ccc2O)c1
[6]
  IC50: > 20 µM (inactive)

## COc1cc(OC)cc(C(=O)NNC(=O)CCc2nc(O)c3ccccc3n2)c1
H9c2
  IC50: 19.6 µM (active)

## Nc1ccc2c(c1)nc(O)c1ccccc12
H9c2
  IC50: 8.49 µM (active)

## CC(=O)Nc1cccc(-c2cc(NC=O)c3ncc(-c4cccc(C(C)=O)c4)n3c2)c1
H9c2
  IC50: > 79 µM (inactive)

## CCN(CC(=O)Nc1c(F)cccc1F)C(=O)CCc1nc(O)c2ccccc2n1
H9c2
  IC50: > 79 µM (inactive)

## COc1ccc(C=NNc2nc3c(=O)n(C)c(=O)n(C)c3[nH]2)cc1
H9c2
  IC50: > 79 µM (inactive)

## Cc1ccc(S(=O)(=O)N2[C@H](c3cccc(Cl)c3)CC(=O)[C@@H]3CN(S(=O)(=O)c4ccccc4C)[C@H](c4ccc(Cl)cc4)C[C@@H]32)cc1
[10]
  AC50: 0.289 µM (active)
[11]
  AC50: 0.62 µM (active)
[12]
  AC50: 5.61 µM (active)

## C[C@@H]1CN([C@H](C)CO)S(=O)(=O)c2ccc(C#CC3CCCC3)cc2O[C@@H]1CN(C)C(=O)Cc1ccncc1
Paired box protein Pax-8
  AC50: 16.5 µM (active)

## C[C@@H]1CCCCO[C@@H](CN(C)C(=O)Nc2ccc(C(F)(F)F)cc2)[C@H](C)CN([C@@H](C)CO)C(=O)c2cc(NC(=O)Nc3ccc(C(F)(F)F)cc3)ccc2O1
Paired box protein Pax-8
  AC50: 2.31 µM (active)

## COc1ccc(Cc2nc3ccccc3n2CC(=O)N/N=C/c2ccc(O)cc2)cc1OC
[1]
  AC50: 0.901 µM (active)
Large T antigen
  IC50: > 100 µM (active)

## COc1cc(/C=N/NC(=O)CNC(=O)c2ccco2)ccc1O
[1]
  AC50: 3.47 µM (active)
[14]
  IC50: 38.5 µM (active)
Large T antigen
  IC50: 6.31 µM (active)

## Cc1nc(C)c(CC(=O)N/N=C/c2ccc(O)cc2)c(O)n1
[1]
  AC50: 2.17 µM (active)
[14]
  IC50: 69.6 µM (active)

## COc1ccc(F)cc1S(=O)(=O)Nc1cnc2ccccc2c1
[9]
  IC50: > 10 µM (inconclusive)

## COc1cc2c(OC)c3ccoc3nc2cc1O
[1]
  AC50: 0.49 µM (active)
Large T antigen
  IC50: 20 µM (active)
